Measurements as given in patent US12150940B2, “WASp-protecting small molecules, compositions, methods and uses thereof in the treatment of innate and acquired immune-related disorders or conditions” (BAR ILAN UNIVERSITY, priority 2016, dated 2024).
Peptide text beside a SMILES is read from it. * marks the point of attachment. Cbz = O=C(OCc1ccccc1)*

Key:
[1] = test system: WASp; experiment: WASp expression in Meg-01 megakaryocyte cell line (western blot); type: cell-based, human; conditions: Meg-01 cells, treated vs untreated
Experimental: Freshly-isolated platelets were stimulated with 10 μM of TRAP-6 for the indicated time points, followed by lysis. WIP (FIG. 7A) or WASp (FIG. 7B) were immunoprecipitated from the lysates and analyzed by western blot for co-immunoprecipitation, using anti-WASp, anti-WIP or anti-PKCθ antibodies. WASp immunoprecipitates were immunoblotted for WASp ubiquitylation using anti-ubiquitin (Ub) antibody (FIG. 7C). Ubiquitylated WASp appears as a smear of bands above the MW of 65 kDa with a prominent band at ˜81 kDa. […] Blots are representative of three independent experiments. Meg-01 megakaryocyte cell line was activated in the presence (+) or absence (−) of MG132, followed by lysis (FIG. 7E). WASp ubiquitylation was determined by co-immunoprecipitation analysis as in FIG. 7C. FIG. 7F illustrates Meg-01 cells that were transfected with PKCθ-specific siRNA (+) or non-specific (NS) siRNA (−). 24 h later, the cells were stimulated and lysed. PKCθ and WASp protein expression levels were analyzed by western blot with anti-PKCθ and anti-WASp antibodies, and with anti-GAPDH as loading control. Relative protein expression was determined by densitometric analysis and is presented below the corresponding lanes. […] Blots are representative of three independent experiments.
Human primary PBMCs were isolated from whole blood of healthy donors, as previously described (Barda-Saad et al, 2005). […]

[2] = target: T1, WASp (Homo sapiens, UniProt P42768); experiment: WASp expression in anti-CD3/anti-CD28-activated PBMCs (western blot); type: cell-based
T1 construct: endogenous in cells; host or cells: primary human platelets from healthy donors
T1 sequence (P42768 1-502): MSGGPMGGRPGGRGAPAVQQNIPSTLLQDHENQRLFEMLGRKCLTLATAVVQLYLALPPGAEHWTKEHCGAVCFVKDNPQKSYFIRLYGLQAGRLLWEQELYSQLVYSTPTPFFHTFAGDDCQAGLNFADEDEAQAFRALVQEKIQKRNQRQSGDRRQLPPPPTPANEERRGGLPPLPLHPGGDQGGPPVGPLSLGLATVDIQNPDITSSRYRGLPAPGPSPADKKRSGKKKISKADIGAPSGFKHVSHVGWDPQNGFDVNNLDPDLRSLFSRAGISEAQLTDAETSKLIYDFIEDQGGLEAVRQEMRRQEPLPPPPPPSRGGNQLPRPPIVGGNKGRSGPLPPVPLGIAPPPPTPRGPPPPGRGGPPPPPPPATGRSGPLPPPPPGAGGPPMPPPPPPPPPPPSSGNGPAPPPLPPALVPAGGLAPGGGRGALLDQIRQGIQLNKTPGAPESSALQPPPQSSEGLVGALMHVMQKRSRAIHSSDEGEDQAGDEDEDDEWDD
Experimental: FIG. 4C-4D. Freshly-isolated PBMCs were incubated with SMC #6 or control at 37° C. for the indicated times. The PBMCs were either co-stimulated (+) with anti-CD3 and anti-CD28 or left unstimulated (−), followed by lysis. Lysates were analyzed for WASp expression by immunoblotting with anti-WASp and anti-GAPDH as loading control (FIG. 4C). Relative WASp expression was determined by densitometric analysis and is presented in a summarizing graph of FIG. 4D. Error bars represent the SE from the mean. P values were calculated versus DMSO-treated control cells by two-tailed Student's t-test, and is indicated therein. Data are representative of three independent experiments.
Jurkat T-cells (FIG. 5A) or Freshly-isolated PBMCs (FIG. 5B) were incubated for 15 min at 37° C. with either control or the indicated WASp-binding SMCs, followed by co-stimulation with anti-CD3 and anti-CD28 and lysis. Freshly-isolated platelets were incubated for 15 min at 37° C. with either control or the indicated WASp-binding SMCs, followed by stimulation with TRAP-6 (10 μM) and lysis (FIG. 5C). Lysates were analyzed for WASp expression by immunoblotting with anti-WASp and anti-GAPDH as loading control. Western blot is representative of three independent experiments. […] Relative WASp expression was determined by densitometric analysis. Error bars represent the SE from the mean. […]

Structure (SMILES) | WASp in whole cell lysates (W.C.L) [1] | WASp degradation in PBMCs ([2]; after 15 min of incubation) | WASp degradation in PBMCs ([2]; after 2 h of incubation, compared with 15 min)
CC(C)C[C@@H](C=O)NC(=O)[C@H](CC(C)C)NC(=O)[C@H](CC(C)C)NC(=O)OCc1ccccc1 [MG132] (Cbz-Leu-Leu-Leu-aldehyde) | more WASp was detected |  | 
CC(=O)N[C@H]1C[C@@H](c2ccc3c(c2)nnn3C)O[C@@H](c2ccc(Cl)cc2)C1 [SMC #6, N-[(2R,4R,6S)-2-(4-chlorophenyl)-6-(1-methylbenzotriazol-5-yl)oxan-4-yl]acetamide] |  | attenuated WASp degradation | more pronounced
